PubChem BioAssay AID1919014 (Molecular Pharmacology Branch, DTP, NCI, 2023)

System: NCI-H1341 complex spheroids, percent test/control
Experiment: Anticancer human tumor NCI-H1341 cell line growth inhibition [AhR];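 further: spheroids exposed to agents for seven days before readout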
Details: for IC50: curve of first compound; for viability, T/C: stronger effect = lower value
Summary of the method: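 Complex tumor spheroids co-cultured with HUVEC and human MSC stroma; AhR antagonists tested in combination with standard-of-care and investigational agents. Top concentration at or near clinical Cmax (else 10 microM), half-log dilutions; growth expressed as percent test/control.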

[1] = second compound 0.1 µM, first compound 0.0316 µM
[2] = second compound 0.1 µM, first compound 0.1 µM
[3] = second compound 0.1 µM, first compound 0.316 µM
[4] = second compound 0.1 µM, first compound 1 µM
[5] = second compound 0.1 µM, first compound 3.16 µM
[6] = second compound 0.1 µM, first compound 10 µM
[7] = second compound 0.316 µM, first compound 0.0316 µM
[8] = second compound 0.316 µM, first compound 0.1 µM
[9] = second compound 0.316 µM, first compound 0.316 µM
[10] = second compound 0.316 µM, first compound 1 µM
[11] = second compound 0.316 µM, first compound 3.16 µM
[12] = second compound 0.316 µM, first compound 10 µM
[13] = second compound 1 µM, first compound 0.0316 µM
[14] = second compound 1 µM, first compound 0.1 µM
[15] = second compound 1 µM, first compound 0.316 µM
[16] = second compound 1 µM, first compound 1 µM
[17] = second compound 1 µM, first compound 3.16 µM
[18] = second compound 1 µM, first compound 10 µM
[19] = second compound 3.16 µM, first compound 0.0316 µM
[20] = second compound 3.16 µM, first compound 0.1 µM
[21] = second compound 3.16 µM, first compound 0.316 µM
[22] = second compound 3.16 µM, first compound 1 µM
[23] = second compound 3.16 µM, first compound 3.16 µM
[24] = second compound 3.16 µM, first compound 10 µM
[25] = second compound 10 µM, first compound 0.0316 µM
[26] = second compound 10 µM, first compound 0.1 µM
[27] = second compound 10 µM, first compound 0.316 µM
[28] = second compound 10 µM, first compound 1 µM
[29] = second compound 10 µM, first compound 3.16 µM
[30] = second compound 10 µM, first compound 10 µM

SMILES: Nc1ccn(C2OC(CO)C(O)C2(F)F)c(=O)n1 (stereo not given) + Cc1ccccc1N=Nc1ccc(NC(=O)c2ccnn2C)c(C)c1
- IC50 (second compound 0.1 µM): < 31.6 nM
- IC50 (second compound 0.316 µM): < 31.6 nM
- IC50 (second compound 1 µM): < 31.6 nM
- IC50 (second compound 3.16 µM): < 31.6 nM
- IC50 (second compound 10 µM): < 31.6 nM
- viability, T/C [1]: 33.4%
- viability, T/C [2]: 38.5%
- viability, T/C [3]: 43.6%
- viability, T/C [4]: 34.7%
- viability, T/C [5]: 32.5%
- viability, T/C [6]: 34.7%
- viability, T/C [7]: 40.3%
- viability, T/C [8]: 38%
- viability, T/C [9]: 34.7%
- viability, T/C [10]: 39.6%
- viability, T/C [11]: 31.6%
- viability, T/C [12]: 38.5%
- viability, T/C [13]: 43%
- viability, T/C [14]: 42.7%
- viability, T/C [15]: 35.5%
- viability, T/C [16]: 32.3%
- viability, T/C [17]: 31.1%
- viability, T/C [18]: 35.3%
- viability, T/C [19]: 45%
- viability, T/C [20]: 38.5%
- viability, T/C [21]: 38.7%
- viability, T/C [22]: 32.3%
- viability, T/C [23]: 36.9%
- viability, T/C [24]: 32.5%
- viability, T/C [25]: 44.2%
- viability, T/C [26]: 40.4%
- viability, T/C [27]: 41.4%
- viability, T/C [28]: 34.9%
- viability, T/C [29]: 29.7%
- viability, T/C [30]: 39.3%

SMILES: O=C(C=Cc1cccc(S(=O)(=O)Nc2ccccc2)c1)NO + Cc1ccccc1N=Nc1ccc(NC(=O)c2ccnn2C)c(C)c1
- IC50 (second compound 0.1 µM): 568 nM
- IC50 (second compound 0.316 µM): 419 nM
- IC50 (second compound 1 µM): 457 nM
- IC50 (second compound 3.16 µM): 266 nM
- IC50 (second compound 10 µM): 338 nM
- viability, T/C [1]: 95.4%
- viability, T/C [2]: 95.6%
- viability, T/C [3]: 75.8%
- viability, T/C [4]: 24.8%
- viability, T/C [5]: 5.9%
- viability, T/C [6]: 0.79%
- viability, T/C [7]: 94.8%
- viability, T/C [8]: 91.9%
- viability, T/C [9]: 54.7%
- viability, T/C [10]: 26.2%
- viability, T/C [11]: 5.71%
- viability, T/C [12]: 0.82%
- viability, T/C [13]: 84.3%
- viability, T/C [14]: 94.1%
- viability, T/C [15]: 60.3%
- viability, T/C [16]: 23%
- viability, T/C [17]: 6.42%
- viability, T/C [18]: 0.59%
- viability, T/C [19]: 77.1%
- viability, T/C [20]: 62.2%
- viability, T/C [21]: 49.9%
- viability, T/C [22]: 25.4%
- viability, T/C [23]: 8.47%
- viability, T/C [24]: 0.58%
- viability, T/C [25]: 59.1%
- viability, T/C [26]: 55%
- viability, T/C [27]: 53.5%
- viability, T/C [28]: 29%
- viability, T/C [29]: 10.8%
- viability, T/C [30]: 1.49%

SMILES: O=C(c1cc(Cc2n[nH]c(=O)c3ccccc23)ccc1F)N1CCN(C(=O)C2CC2)CC1 + Cc1ccccc1N=Nc1ccc(NC(=O)c2ccnn2C)c(C)c1
- IC50 (second compound 0.1 µM): > 10000 nM
- IC50 (second compound 0.316 µM): > 10000 nM
- IC50 (second compound 1 µM): > 10000 nM
- IC50 (second compound 3.16 µM): > 10000 nM
- IC50 (second compound 10 µM): > 10000 nM
- viability, T/C [1]: 94%
- viability, T/C [2]: 83.4%
- viability, T/C [3]: 93.9%
- viability, T/C [4]: 86.4%
- viability, T/C [5]: 104%
- viability, T/C [6]: 69.4%
- viability, T/C [7]: 87.4%
- viability, T/C [8]: 84.5%
- viability, T/C [9]: 97.4%
- viability, T/C [10]: 71.2%
- viability, T/C [11]: 72.8%
- viability, T/C [12]: 59.1%
- viability, T/C [13]: 94.2%
- viability, T/C [14]: 97.8%
- viability, T/C [15]: 68.8%
- viability, T/C [16]: 78.3%
- viability, T/C [17]: 81.2%
- viability, T/C [18]: 69.1%
- viability, T/C [19]: 67.6%
- viability, T/C [20]: 72.1%
- viability, T/C [21]: 65.7%
- viability, T/C [22]: 74%
- viability, T/C [23]: 60.9%
- viability, T/C [24]: 57.3%
- viability, T/C [25]: 46.2%
- viability, T/C [26]: 50.3%
- viability, T/C [27]: 56.3%
- viability, T/C [28]: 58.6%
- viability, T/C [29]: 51.2%
- viability, T/C [30]: 47.5%
